From PMC6043687, “Structural Analysis of Phosphoserine Aminotransferase (Isoform 1) From Arabidopsis thaliana– the Enzyme Involved in the Phosphorylated Pathway of Serine Biosynthesis” (Frontiers in Plant Science, 2018)

Columns and labels:
AtPSAT1 [1] = target: T1, AtPSAT1 (Arabidopsis thaliana, UniProt Q96255); assay: X-ray crystallography: conversion of bound PLP to PMP; type: biochemical; settings: 10 mM Glu added before crystallization; pH 8.5; Glu itself not present in the structure
T1 construct: gene PSAT1; residues 72-430 (71-residue chloroplast transit peptide removed), 359 residues plus N-terminal SNA left after TEV cleavage of His6-tag; E. coli BL21 Gold, pMCSG68; homodimer (~80 kDa by SEC)
T1 sequence (Q96255 72-430): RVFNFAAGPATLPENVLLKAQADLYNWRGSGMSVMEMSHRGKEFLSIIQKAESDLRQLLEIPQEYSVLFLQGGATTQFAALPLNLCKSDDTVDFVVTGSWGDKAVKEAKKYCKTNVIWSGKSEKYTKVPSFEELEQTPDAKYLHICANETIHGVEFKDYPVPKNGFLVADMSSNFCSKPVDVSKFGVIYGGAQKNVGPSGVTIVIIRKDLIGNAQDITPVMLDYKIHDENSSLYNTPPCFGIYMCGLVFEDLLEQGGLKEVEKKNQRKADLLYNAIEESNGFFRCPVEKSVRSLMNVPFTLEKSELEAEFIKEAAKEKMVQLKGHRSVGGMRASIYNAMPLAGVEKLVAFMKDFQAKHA

AtPSAT1 [2] = target: T1, AtPSAT1; assay: X-ray crystallography, […] Å; type: binding; settings: covalent; internal aldimine (Schiff base) with K265; 1 mM PLP added; pH 8.5, 0.2 M lithium sulfate
AtPSAT1 [3] = target: T1, AtPSAT1; assay: X-ray crystallography, […] Å; type: binding; settings: PMP formed from PLP by addition of 10 mM Glu; not covalently bound to K265; pH 8.5, 0.2 M lithium sulfate
AtPSAT1 [4] = target: T1, AtPSAT1; assay: X-ray crystallography, […] Å; type: binding; settings: covalent; PLP-PSer geminal diamine intermediate also bound to K265; cocrystallized with 50 mM PSer, pH 8.5, no lithium sulfate
[5] = target: the molecule itself; assay: SEC; HiLoad Superdex 200 16/60; 25 mM HEPES pH 7.4, 100 mM KCl, 50 mM NaCl, 1 mM TCEP; protein mass calculated from the retention volume (~80 kDa)

N[C@@H](CCC(=O)O)C(=O)O [Glu]
first half-transamination observed in crystal (AtPSAT1 [1]): electron density maps (Figures 6A,B) revealed the cofactor with the amino group already transferred from Glu

Cc1ncc(COP(=O)(O)O)c(C=O)c1O [PLP]
crystal structure (AtPSAT1 [2]): The PLP prosthetic group creates a Schiff base (internal aldimine) between C4′ and Nζ of K265

Cc1ncc(COP(=O)(O)O)c(CN)c1O [PMP]
crystal structure (AtPSAT1 [3]): Position of PMP is almost identical as PLP, thus its interactions with the protein are preserved

N[C@@H](COP(=O)(O)O)C(=O)O [PSer]
crystal structure (AtPSAT1 [4]): The bound PSer creates several hydrogen bonds in the active site

B1: Phosphoserine aminotransferase isoform 1 from Arabidopsis thaliana (AtPSAT1), residues 72-430 (enzyme, UniProt Q96255 72-430, looked up)
chain: RVFNFAAGPATLPENVLLKAQADLYNWRGSGMSVMEMSHRGKEFLSIIQKAESDLRQLLEIPQEYSVLFLQGGATTQFAALPLNLCKSDDTVDFVVTGSWGDKAVKEAKKYCKTNVIWSGKSEKYTKVPSFEELEQTPDAKYLHICANETIHGVEFKDYPVPKNGFLVADMSSNFCSKPVDVSKFGVIYGGAQKNVGPSGVTIVIIRKDLIGNAQDITPVMLDYKIHDENSSLYNTPPCFGIYMCGLVFEDLLEQGGLKEVEKKNQRKADLLYNAIEESNGFFRCPVEKSVRSLMNVPFTLEKSELEAEFIKEAAKEKMVQLKGHRSVGGMRASIYNAMPLAGVEKLVAFMKDFQAKHA
modifications: PLP covalently bound to the catalytic K265 (internal aldimine, 6czx); PMP not covalently bound (6czy); cofactor covalently bound to both K265 and PSer (geminal diamine, 6czz)
notes: Phosphoserine aminotransferase isoform 1, chloroplastic, Arabidopsis thaliana; subunit of 430 residues including the transit peptide; construct truncated before R72 (71-residue chloroplast transit peptide removed), residues 72-430, 359 residues; After TEV cleavage the N-terminal residues SNA remain in front of R72 (vector pMCSG68); Crystallised with 1 mM PLP; with 10 mM Glu (PMP form) or 50 mM …
stoichiometry N [5]: 2
